Source: publication PMC3199943, “Screening the MayBridge Rule of 3 Fragment Library for Compounds That Interact with the Trypanosoma brucei myo-Inositol-3-Phosphate Synthase and/or Show Trypanocidal Activity” (Molecular Biology International, 2011)
Counter-ions that a name gives are not always drawn. Like-named read-outs stand apart in the source and are kept apart here.

Columns and labels:
A549 cells = experiment: Cytotoxicity against A549 cells, Alamar Blue; type: cell-based; settings: Supplementary Table 1, compound 0.5 mM, percentage of controls (n=1); for viability at 500 µM: Homo sapiens, A549, 65 h
Method in brief: (§1)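 Alamar Blue read-out after a 5 h dye incubation that followed ~65 h compound exposure. Cells: HeLa or A549, 2 × 10^4/well, DMEM + 10% FCS + 2 mM L-Glutamine.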

TbINO1 = target: T1, TbINO1 (Trypanosoma brucei brucei, UniProt Q5QQ46); experiment: biochemical; type: binding
T1 sequence (Q5QQ46 1-528): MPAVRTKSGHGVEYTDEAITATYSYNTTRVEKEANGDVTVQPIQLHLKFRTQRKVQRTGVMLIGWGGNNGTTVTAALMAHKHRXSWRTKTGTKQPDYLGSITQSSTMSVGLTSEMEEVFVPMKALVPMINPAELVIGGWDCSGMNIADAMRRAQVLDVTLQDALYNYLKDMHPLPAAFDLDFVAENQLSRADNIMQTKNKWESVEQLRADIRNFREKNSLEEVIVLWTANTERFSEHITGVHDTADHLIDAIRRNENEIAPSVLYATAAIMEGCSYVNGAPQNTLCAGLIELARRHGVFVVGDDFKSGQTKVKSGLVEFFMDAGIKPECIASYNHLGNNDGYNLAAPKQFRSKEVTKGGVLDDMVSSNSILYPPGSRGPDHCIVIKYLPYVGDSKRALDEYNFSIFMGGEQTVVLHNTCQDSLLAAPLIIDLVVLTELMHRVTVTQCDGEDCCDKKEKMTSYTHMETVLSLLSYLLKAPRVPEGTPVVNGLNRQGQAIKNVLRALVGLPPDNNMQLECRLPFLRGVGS

HeLa cells = experiment: cells; settings: for HeLa Cells Alamar Blue: Supplementary Table 1, compound 0.5 mM, percentage of controls, mean ± SD (n=3) or SE (n=2); for viability at 500 µM: 65 h
Method in brief: as §1

[1] = Supplementary Table 1, compound 1mM, mean ± SD from Boltzman curve fitting
[2] = read-out: Tb Ino1 Tm Shift [˚C]
[3] = Homo sapiens, HeLa, read-out: HeLa Cells Alamar Blue
[4] = Homo sapiens, HeLa, read-out: HeLa Cells Alamar Blue (% survival)

Compound | ΔTm at 1000 µM (TbINO1; [2]) [°C] | viability at 500 µM (A549 cells) [%] | viability at 500 µM (HeLa cells; [3]) [%] | also measured
CC(=O)Nc1ccc2c(c1)CCC2=O [compound 535, N1‐(1‐oxo‐2,3‐dihydro‐1H‐inden‐5‐yl)acetamide] | – | – | – | A549 Cells Alamar Blue (A549 cells): 76.5 percentage of controls; Tb Ino1 Tm Shift [˚C] (TbINO1; [1]): 0.21 ± 0.07 °C; HeLa Cells Alamar Blue (HeLa cells): 87.3 ± 4.6 percentage of controls
COC(=O)c1cscc1N [compound 244, methyl 4‐aminothiophene‐3‐carboxylate] | 0.61 ± 0.11 | 90.3 | 78.7 ± 17.9 | –
CC(=O)c1cc[nH]c1 [compound 20, 1-(1H-pyrrol-3-yl)ethan-1-one] | – | 121 | 102 ± 4.3 | ΔTm at 1000 µM (TbINO1; read-out: TbIno1 Tm shift [°C]): 1.88 ± 0.08 °C; viability at 500 µM (HeLa cells; [4]): 102 ± 4.3%; CC50 (HeLa cells; Homo sapiens, HeLa, read-out: HeLa ED50): > 5 mM
CC(=O)Nc1ccc2c(c1)CCC2 [compound 400, N1‐(2,3‐dihydro‐1H‐inden‐5‐yl)acetamide] | 0.12 ± 0.07 | 99.3 | 23.9 ± 13.6 | –
Cc1nc(C(=O)O)cs1 [compound 146, 2‐methyl‐1,3‐thiazole‐4‐carboxylic acid] | 0.1 ± 0.08 | 109 | 87 ± 6.4 | –
OCc1ccc(N2CCOCC2)cc1 [compound 578, (4‐morpholin‐4‐yl‐phenyl)‐methanol] | 0.17 ± 0.08 | 75.4 | 42.3 ± 9 | –
Cc1cc(C(=O)O)c(C(F)(F)F)o1 [compound 583, 5‐methyl‐2‐(trifluoromethyl)‐3‐furoic acid] | 0.06 ± 0.07 | 59.6 | 86.1 ± 15.8 | –
O=C(O)Cc1cccnc1 [compound 381, pyridin‐3‐ylacetic acid hydrochloride] | 1.08 ± 0.05 | 105 | 99.2 ± 9.9 | –
Cc1cccc(C)c1C#N [compound 94, 2,6‐dimethylbenzonitrile] | – | 114 | 96.4 ± 13.9 | ΔTm at 1000 µM (TbINO1; Supplementary Table 1, compound 1mM, mean ± SD from Boltzman curve fitting, read-out: Tb Ino1 Tm Shift [˚C]): 1.3 ± 0.06 °C
Cc1nc(C)c(CO)s1 [compound 147, (2,4‐dimethyl‐1,3‐thiazol‐5‐yl)methanol] | 0.14 ± 0.08 | 118 | 93.6 ± 4.3 | –
OCc1cccnc1N1CCCC1 [compound 440, [2‐(1‐pyrrolidinyl)‐3‐pyridinyl]methanol] | 0.78 ± 0.08 | 94 | 74.6 ± 7.5 | –
NC1=CC=C2OCOCC2C1 (centres unmarked) [compound 195, 4,5‐dihydro‐1,3‐benzodioxine‐6‐amine] | 1.16 ± 0.06 | 54.1 | 77.4 ± 10.5 | –
O=C(O)C1Cc2ccccc2N1 (centres unmarked) [compound 292, indoline-2-carboxylic acid] | – | 78.3 | 37.6 ± 25 | ΔTm at 1000 µM (TbINO1; read-out: TbIno1 Tm shift [°C]): 1.54 ± 0.11 °C; viability at 500 µM (HeLa cells; [4]): 37.6 ± 2.5%
O=C(O)c1cccc(N2CCCCC2)c1 [compound 663, 3‐piperidinobenzoic acid] | 1.23 ± 0.07 | 104 | 97.9 ± 1.5 | –
Nc1ccc2c(c1)CCCC2=O [compound 280, 6‐amino‐1,2,3,4‐tetrahydronaphthalen‐1‐one] | – | – | – | A549 Cells Alamar Blue (A549 cells): 87.3 percentage of controls; Tb Ino1 Tm Shift [˚C] (TbINO1; [1]): 0.82 ± 0.09 °C; HeLa Cells Alamar Blue (HeLa cells): 40.5 ± 19.2 percentage of controls
OCc1ccccc1-n1cccc1 [compound 371, [2‐(1H‐pyrrol‐1‐yl)phenyl]methanol] | 0.36 ± 0.07 | 87.3 | 88.5 ± 6.4 | –
O=C(O)c1cccc(-n2cccc2)c1 [compound 511, 3‐(1H‐pyrrol‐1‐yl)benzoic acid] | 0.6 ± 0.08 | 73 | 102 ± 12.3 | –
Cc1csc(C(=O)O)c1 [compound 139, 4‐methylthiophene‐2‐carboxylic acid] | 0.08 ± 0.07 | 121 | 70.9 ± 10.7 | –
Cc1cc(O)nc2ccccc12 [compound 258, 4‐methyl‐2‐quinolinol] | 0.17 ± 0.06 | 90.7 | 92.7 ± 13.6 | –
OCc1ccc(N2CCCC2)cc1 [compound 427, [4‐(1‐pyrrolidinyl)phenyl]methanol] | 0.35 ± 0.06 | 64.2 | 59.8 ± 14.4 | –
Cl.NCc1ccc2c(c1)CCO2 [compound 496, 2,3‐dihydrobenzo[b]furan‐5‐ylmethylamine hydrochloride] | – | – | – | A549 Cells Alamar Blue (A549 cells): 96.7 percentage of controls; Tb Ino1 Tm Shift [˚C] (TbINO1; [1]): 0.06 ± 0.08 °C; HeLa Cells Alamar Blue (HeLa cells): 99.8 ± 15.5 percentage of controls
Cc1csc(CC#N)n1 [compound 126, 2-(4-methyl-1,3-thiazol-2-yl)acetonitrile] | – | 98.4 | 69.7 ± 10.3 | ΔTm at 1000 µM (TbINO1; read-out: TbIno1 Tm shift [°C]): 2.1 ± 0.09 °C; viability at 500 µM (HeLa cells; [4]): 69.7 ± 10.3%
O=C(O)Cc1c[nH]c2ccccc12 [compound 391, 2-(1H-indol-3-yl)acetic acid] | – | 134 | 42.6 ± 6.4 | ΔTm at 1000 µM (TbINO1; read-out: TbIno1 Tm shift [°C]): 1.67 ± 0.08 °C; viability at 500 µM (HeLa cells; [4]): 42.6 ± 6.4%
O=C(O)CCc1cccs1 [compound 237, 3‐(2‐thienyl)propanoic acid] | 0.22 ± 0.07 | 70.9 | 113 ± 7.8 | –
NC(=S)c1cccc2c1OCCO2 [compound 592, 2,3‐dihydro‐1,4‐benzodioxine‐5‐carbothioamide] | – | – | – | A549 Cells Alamar Blue (A549 cells): 39.8 percentage of controls; Tb Ino1 Tm Shift [˚C] (TbINO1; [1]): 0.18 ± 0.07 °C; HeLa Cells Alamar Blue (HeLa cells): 54.3 ± 15.7 percentage of controls

The next lines start with results.

ΔTm at 1000 µM (TbINO1; [2]) [°C] | Compound | viability at 500 µM (A549 cells) [%] | viability at 500 µM (HeLa cells; [3]) [%] | also measured
0.19 ± 0.07 | Nc1cccc(Cn2ccnc2)c1 [compound 377, 3‐(1H‐imidazol‐1‐ylmethyl)aniline] | 62.4 | 103 ± 12.6 | –
0.15 ± 0.08 | N#Cc1c(N)cccc1Cl [compound 210, 2‐amino‐6‐chlorobenzonitrile] | 89.2 | 91.5 ± 10.8 | –
0.42 ± 0.06 | NC(=S)c1ccccc1 [compound 123, benzene‐1‐carbothioamide] | 87.9 | 89 ± 10.9 | –
0.07 ± 0.07 | COc1ccc(Cl)cc1C(=O)O [compound 508, 5‐chloro‐2‐methoxybenzoic acid] | 101 | 78.4 ± 17.3 | –
0.1 ± 0.07 | COC(=O)c1ccc(C)c(Cl)c1 [compound 484, methyl 3‐chloro‐4‐methylbenzoate] | 120 | 112 ± 12 | –
0.16 ± 0.08 | OCc1ccc(-c2cccs2)cc1 [compound 544, (4‐thien‐2‐ylphenyl)methanol] | 80 | 74.7 ± 10.2 | –
0.04 ± 0.08 | Nc1ccc2c(c1)C(=O)OC2 [compound 175, 6‐amino‐1,3‐dihydroisobenzofuran‐1‐one] | 79.5 | 106 ± 17 | –
0.19 ± 0.06 | NCc1ccc(-n2cccn2)cc1 [compound 378, 4‐(1H‐pyrazol‐1‐yl)benzylamine] | 95.9 | 101 ± 8.3 | –
0.43 ± 0.07 | N#Cc1cc(Cl)ccc1O [compound 218, 5‐chloro‐2‐hydroxybenzonitrile] | 67.7 | 92 ± 11.8 | –
0.02 ± 0.05 | Oc1ccc(F)c(Cl)c1 [compound 160, 3‐chloro‐4‐fluorophenol] | 77.4 | 94.9 ± 15.3 | –
0.27 ± 0.08 | Nc1cccc(N2CCOCC2)c1 [compound 441, 3‐morpholin‐4‐ylaniline] | 85 | 77.7 ± 16.7 | –
